Assay results from patent US5580956A, “Phospholipase C-inhibiting peptides” (priority 1992, dated 1996).
≈ marks a conversion by molar mass, not a printed value. Peptide text beside a SMILES is read from it. * marks the point of attachment. Propanoyl(3-cPent) = O=C(CCC1CCCC1)*; Cyclohexylacetyl = O=C(CC1CCCCC1)*; Cyclopropanecarbonyl = O=C(C1CC1)*; Butanoyl(2-Et) = CCC(CC)C(=O)*; Nonanoyl = CCCCCCCCC(=O)*; Isobutyryl = CC(C)C(=O)*; Butyryl = CCCC(=O)*

Experiments:
[1] = tested on: Pseudomonas aeruginosa Bin H No. 1; assay type: cell-based; conditions: Bin H No. 1, pH 7
Protocol: (§1) The antibacterial activity was determined by the agar dilution method using a culture medium (pH 7.0) containing 3 g/l bactotrypton (product of Difco Co.), 1 g/l meat extract, 1 g/l glucose and 16 g/l agar.

[2] = tested on: Proteus vulgaris ATCC6897; assay type: cell-based; conditions: ATCC6897, pH 7
Protocol: as §1

PLC-γ1 = molecular target: T1, PLC-γ1 (Bos taurus, UniProt P08487); assay: PLC-inhibiting activity (release of [3H]inositol phosphate from [3H]PIP2); assay type: biochemical, bovine; conditions: PI-PLC-γ1, 37° C., 10 minutes; for inhibition at 120 µM (stock): Concentration 120 μM (aqueous solution of test peptide)
T1 construct: A sample (PLC-γ1) was prepared from bovine thymus according to the method of Y. Homma et al; from tissue; host or cells: bovine thymus
T1 sequence (P08487 1-1291): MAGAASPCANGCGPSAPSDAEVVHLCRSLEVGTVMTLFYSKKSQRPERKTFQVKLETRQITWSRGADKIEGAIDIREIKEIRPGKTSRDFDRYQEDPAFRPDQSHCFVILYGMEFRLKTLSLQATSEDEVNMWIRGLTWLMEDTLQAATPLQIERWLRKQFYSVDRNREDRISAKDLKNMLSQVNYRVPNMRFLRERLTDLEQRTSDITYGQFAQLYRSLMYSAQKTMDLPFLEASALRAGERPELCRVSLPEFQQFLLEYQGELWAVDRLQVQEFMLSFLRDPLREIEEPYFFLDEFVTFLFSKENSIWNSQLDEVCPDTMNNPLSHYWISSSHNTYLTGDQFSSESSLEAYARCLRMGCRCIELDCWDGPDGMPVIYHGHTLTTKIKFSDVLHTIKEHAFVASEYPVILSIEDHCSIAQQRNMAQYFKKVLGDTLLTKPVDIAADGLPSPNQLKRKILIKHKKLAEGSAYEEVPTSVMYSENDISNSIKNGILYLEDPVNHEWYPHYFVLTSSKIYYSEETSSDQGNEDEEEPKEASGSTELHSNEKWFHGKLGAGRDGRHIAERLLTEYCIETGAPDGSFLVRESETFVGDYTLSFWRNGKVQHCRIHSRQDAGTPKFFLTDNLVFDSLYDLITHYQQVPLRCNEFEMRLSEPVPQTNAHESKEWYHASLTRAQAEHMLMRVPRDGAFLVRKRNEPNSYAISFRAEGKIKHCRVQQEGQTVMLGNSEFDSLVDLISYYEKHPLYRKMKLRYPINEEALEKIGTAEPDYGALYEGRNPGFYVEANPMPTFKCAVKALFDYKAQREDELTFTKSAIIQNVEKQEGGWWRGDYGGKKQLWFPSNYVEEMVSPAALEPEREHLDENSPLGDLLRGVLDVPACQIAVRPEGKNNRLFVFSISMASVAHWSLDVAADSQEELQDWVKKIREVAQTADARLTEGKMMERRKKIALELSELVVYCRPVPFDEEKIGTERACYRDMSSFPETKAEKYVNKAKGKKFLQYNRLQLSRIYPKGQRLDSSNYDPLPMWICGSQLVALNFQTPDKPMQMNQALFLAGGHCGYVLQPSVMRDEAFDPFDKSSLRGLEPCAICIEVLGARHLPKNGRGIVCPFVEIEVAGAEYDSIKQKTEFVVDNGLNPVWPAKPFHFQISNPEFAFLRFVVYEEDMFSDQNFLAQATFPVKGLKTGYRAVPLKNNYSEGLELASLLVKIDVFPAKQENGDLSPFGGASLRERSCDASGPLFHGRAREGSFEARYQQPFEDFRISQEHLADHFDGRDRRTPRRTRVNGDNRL
Protocol: A sample (PLC-γ1) was prepared from bovine thymus according to the method of Y. Homma et al. described in Biochemical Journal [(Biochem. J.), 269, 13 (1990)]. A solution having the composition listed in Table 1 below was prepared in advance on the ice and the reaction was begun with heating to 37° C. After incubation for 10 minutes, 2 ml of a solution mixture of chloroform/methanol (2:[…]) was added thereto to stop the reaction. The resulting inositol phosphate was extracted with 0.5 ml of 1N hydrochloric acid. Two-phase distribution was carried out by centrifugation (2000×g, 3 minutes), and the amount of ^3 H contained in 0.7 ml of the supernatant was measured with scintillation counter. […] The obtained value of specific radioactivity was defined as "A", the value of specific radioactivity obtained when an equivalent amount of water was added instead of the aqueous solution of the test peptide was defined as "B", the value of specific radioactivity obtained when an equivalent amount of water was added instead of the sample and the aqueous solution of the test peptide was defined as "C", and the inhibition rate (X) was determined according to the following equation. X(%)=[…]

KMS-4 cells = assay: Cell proliferation-inhibiting activity (BrdU incorporation, Amersham Cell Proliferation Detection Kit); assay type: cell-based; conditions: 17 hours with peptide, BrdU-stained cells
Protocol: The following procedure was carried out with an Amersham Cell Proliferation Detection Kit. First, cells [KMS-4; M. Nanba et al., International Journal of Cancer, 32, 697 (1983)] were suspended in a DMEM culture medium (product of Nissui Seiyaku) containing 10% fetal calf serum to a concentration of 1-2×10^4 cells/ml, and 1 ml of the above-mentioned cell suspension was put into each well of a 24-well plate (product of Corning Co.). The cells were cultured for 2 days in a CO2 incubator (37° C., 5% CO2). Next, the culture medium was exchanged with a DMEM medium containing 10% fetal calf serum, and then the test peptide was added thereto and culturing was carried out for 17 hours. The culture medium was again exchanged with a serum-free DMEM medium, 0.5 ml of a solution of the reagents labelled 5-bromo-2'-deoxyuridine (BrdU) and 5-fluoro-2'-deoxyuridine (FdU) [10:1] diluted 1000-fold with the same medium was added to each well, and cultured for 2 hours. The culture medium was removed, and the cells were immobilized with an acetic acid/ethanol solution. The immobilized cells were stained according to the method for the Amersham Cell Proliferation Kit, and then further stained with a 1% Giemsa solution (product of Merck Co.). The number of cells incorporating BrdU and the total cell count within 1 field of vision of the microscope (approximately 200 cells) were determined, and the proportion (%) of stained cells per field of vision was calculated. Furthermore, the same procedure was repeated 10 times, and the average value thereof was defined as the cell proliferation activity (%). The cell proliferation-inhibiting activity was calculated in the following manner. The proliferation activity without addition of peptide was defined as "A", the proliferation activity with addition of the test peptide was defined as "B", and the cell proliferation inhibition rate (X) was determined according to the following equation. X (%)=[…]

| Molecule | Cell proliferation inhibition rate (%) (KMS-4 cells; Concentration 32 μM) | Cell proliferation inhibition rate (%) (KMS-4 cells; Concentration 31 μM) | inhibition at 120 µM (stock) (PLC-γ1; read-out: Inhibition rate (%)) [%] | also measured |
| --- | --- | --- | --- | --- |
| CSCC[C@H](NC(=O)[C@H](CCCCN)NC(=O)[C@H](CCCNC(=N)N)NC(=O)[C@H](Cc1ccc(O)cc1)NC(=O)[C@H](CC(C)C)NC(=O)C(C)C)C(=O)N[C@@H](CCCNC(=N)N)C(=O)N[C@@H](CC(C)C)C(=O)N[C@@H](CCCNC(=N)N)C(=O)N[C@@H](Cc1ccc(O)cc1)C(=O)N1CCC[C@H]1C(=O)N[C@H](C(N)=O)C(C)C [(I-19), (CH3)2 CHCO-Leu-Tyr-Arg-Lys-Met-Arg-Leu-Arg-Tyr-Pro-Val-NH2] (Isobutyryl-LYRKMRLRYPV-NH2) | 59 | – | – | MIC [1]: 83 µg/mL (≈ 53.1 µM); MIC [2]: 83 µg/mL (≈ 53.1 µM); inhibition at 640 µM (stock) (PLC-γ1; Concentration 640 μM (aqueous solution of test peptide), read-out: Inhibition rate (%)): 67% |
| CCC(CC)C(=O)N[C@@H](CC(C)C)C(=O)N[C@@H](Cc1ccc(O)cc1)C(=O)N[C@@H](CCCNC(=N)N)C(=O)N[C@@H](CCCCN)C(=O)N[C@@H](CCSC)C(=O)N[C@@H](CCCNC(=N)N)C(=O)N[C@@H](CC(C)C)C(=O)N[C@@H](CCCNC(=N)N)C(=O)N[C@@H](Cc1ccc(O)cc1)C(=O)N1CCC[C@H]1C(=O)N[C@H](C(N)=O)C(C)C [(I-20), (CH3 CH2)2 CHCO-Leu-Tyr-Arg-Lys-Met-Arg-Leu-Arg-Tyr-Pro-Val-NH2] ({Butanoyl(2-Et)}-LYRKMRLRYPV-NH2) | – | 44 | – | MIC [1]: 83 µg/mL (≈ 52.1 µM); MIC [2]: 83 µg/mL (≈ 52.1 µM); inhibition at 630 µM (stock) (PLC-γ1; Concentration 630 μM (aqueous solution of test peptide), read-out: Inhibition rate (%)): 74% |
| CSCC[C@H](NC(=O)[C@H](CCCCN)NC(=O)[C@H](CCCNC(=N)N)NC(=O)[C@H](Cc1ccc(O)cc1)NC(=O)[C@H](CC(C)C)NC(=O)CCC1CCCC1)C(=O)N[C@@H](CCCNC(=N)N)C(=O)N[C@@H](CC(C)C)C(=O)N[C@@H](CCCNC(=N)N)C(=O)N[C@@H](Cc1ccc(O)cc1)C(=O)N1CCC[C@H]1C(=O)N[C@H](C(N)=O)C(C)C [(I-23), C5 H9 CH2 CH2 CO-Leu-Tyr-Arg-Lys-Met-Arg-Leu-Arg-Tyr-Pro-Val-NH2] ({Propanoyl(3-cPent)}-LYRKMRLRYPV-NH2) | – | 53 | 53 | – |
| CSCC[C@H](NC(=O)[C@H](CCCCN)NC(=O)[C@H](CCCNC(=N)N)NC(=O)[C@H](Cc1ccc(O)cc1)NC(=O)[C@H](CC(C)C)NC(=O)C1CC1)C(=O)N[C@@H](CCCNC(=N)N)C(=O)N[C@@H](CC(C)C)C(=O)N[C@@H](CCCNC(=N)N)C(=O)N[C@@H](Cc1ccc(O)cc1)C(=O)N1CCC[C@H]1C(=O)N[C@H](C(N)=O)C(C)C [(I-24), C3 H5 CO-Leu-Tyr-Arg-Lys-Met-Arg-Leu-Arg-Tyr-Pro-Val-NH2] (Cyclopropanecarbonyl-LYRKMRLRYPV-NH2) | 66 | – | 55 | – |
| CSCC[C@H](NC(=O)[C@H](CCCCN)NC(=O)[C@H](CCCNC(=N)N)NC(=O)[C@H](Cc1ccc(O)cc1)NC(=O)[C@H](CC(C)C)NC(=O)CC1CCCCC1)C(=O)N[C@@H](CCCNC(=N)N)C(=O)N[C@@H](CC(C)C)C(=O)N[C@@H](CCCNC(=N)N)C(=O)N[C@@H](Cc1ccc(O)cc1)C(=O)N1CCC[C@H]1C(=O)N[C@H](C(N)=O)C(C)C [(I-25), C6 H11 CH2 CO-Leu-Tyr-Arg-Lys-Met-Arg-Leu-Arg-Tyr-Pro-Val-NH2] (Cyclohexylacetyl-LYRKMRLRYPV-NH2) | – | 75 | 50 | – |
| CCCCCCCCC(=O)N[C@@H](CC(C)C)C(=O)N[C@@H](Cc1ccc(O)cc1)C(=O)N[C@@H](CCCNC(=N)N)C(=O)N[C@@H](CCCCN)C(=O)N[C@@H](CCSC)C(=O)N[C@@H](CCCNC(=N)N)C(=O)N[C@@H](CC(C)C)C(=O)N[C@@H](CCCNC(=N)N)C(=O)N[C@@H](Cc1ccc(O)cc1)C(=O)N1CCC[C@H]1C(=O)N[C@H](C(N)=O)C(C)C [(I-28), CH3 (CH2)7 CO-Leu-Tyr-Arg-Lys-Met-Arg-Leu-Arg-Tyr-Pro-Val-NH2] (Nonanoyl-LYRKMRLRYPV-NH2) | – | 22 | 78 | – |
| H-YRKMRLRY-NH2 [Compound (I-9), H-Tyr-Arg-Lys-Met-Arg-Leu-Arg-Tyr-NH2] | – | – | – | inhibition at 850 µM (stock) (PLC-γ1; Concentration 850 μM (aqueous solution of test peptide), read-out: Inhibition rate (%)): 34%; Cell proliferation inhibition rate (%) (KMS-4 cells; Concentration 42 μM): 50% |
| n-C3 H7 CO-Leu-Tyr-Arg-Lys-Met-Arg-Leu-Arg-Tyr-Pro-Val-NH2 (Butyryl-LYRKMRLRYPV-NH2; SMILES CCCC(=O)N[C@@H](CC(C)C)C(=O)N[C@@H](Cc1ccc(O)cc1)C(=O)N[C@@H](CCCNC(=N)N)C(=O)N[C@@H](CCCCN)C(=O)N[C@@H](CCSC)C(=O)N[C@@H](CCCNC(=N)N)C(=O)N[C@@H](CC(C)C)C(=O)N[C@@H](CCCNC(=N)N)C(=O)N[C@@H](Cc1ccc(O)cc1)C(=O)N1CCC[C@H]1C(=O)N[C@H](C(N)=O)C(C)C) [Compound (I-11)] | 84 | – | – | Inhibition rate (%) (PLC-γ1; Concentration 130 μM (aqueous solution of test peptide)): 31%; Cell proliferation inhibition rate (%) (KMS-4 cells; Concentration 1 μM): 86% |
